In the assay the test system is P. falciparum 3D7 growth, pLDH absorbance. Put plainly: P. falciparum 3D7 growth inhibition, dose response, strain 3D7 (AID 2305).

Values joined by “and” are separate entries in the source; they are usually repeats but may differ in a detail not shown here. Equal values may be shown once.

In general, IC50 refers to the concentration that gives 50% inhibition. Lower therefore signals greater potency in that assay.

Take `CC(CCc1ccccc1)NCC(O)c1ccc2c(c1)S(=O)(=O)c1ccccc1N2` (stereo unspecified): the IC50 worked out at 1220 nM. With `Cc1cnc(C(=O)Nc2ccc3c(c2)CCCN(Cc2c[nH]c4cnccc24)C3)cn1` the figure was 1230 nM. With `c1ccc2c(Nc3ccc(OCCOCCOc4ccc(Nc5c6ccccc6nc6ccccc56)cc4)cc3)c3ccccc3nc2c1` the figure was 280 nM; with `Cc1cc(NN=Cc2ccccc2Cl)c2ccc(F)cc2n1`, 260 nM; with `COc1cc2c(c(OC)c1[N+](=O)[O-])C=CC1(O2)N(C)c2ccc([N+](=O)[O-])cc2C1(C)C` (stereo unspecified), 910 nM. With `Cn1cncc1C(=O)Nc1ccc(-c2cccc(-c3nc4ccc(C(F)(F)F)cc4[nH]3)c2)cc1` the figure was 860 nM. Take `O=C(/C=C/c1ccc(Cl)c(Cl)c1)NCCCCCCN1CCCN(C(=O)Nc2ccc(C(F)(F)F)cc2)CC1`: the IC50 is 580 nM. `CCNc1cc(C(=O)N[C@@H](Cc2ccccc2)[C@H](O)CNC2(CC)CC2)cc(N2CCCCS2(=O)=O)c1` returned an IC50 of 1610 nM. For `O=C(Nc1ccc(-c2ccccc2)cc1)Nc1ccc2c(c1)CCNCC2` the value was 350 nM. For `Cc1cc2c(/C=C/C(=O)NC3CCC(CCN4CCc5ccc(C#N)cc5CC4)CC3)cccc2[nH]1` (stereo unspecified) the value was 840 nM; for `COc1ccc(C(C(=O)NC2CCN(C[C@H](O)c3ccnc4ccc(OC)cc34)CC2)N2CCN(c3ccc([N+](=O)[O-])cc3)CC2)cc1` (stereo partly specified), 230 nM; for `O=C(/C=C/c1ccc(Cl)c(Cl)c1)NCCCCCN1CCC(CCNC(=O)/C=C/c2ccc(Cl)c(Cl)c2)CC1`, 560 nM. For `Cc1ccccc1C1CCN(C2CCC(NC(=O)/C=C/c3ccc(C(F)(F)F)cc3F)CC2)CC1` (stereo unspecified) the value was 900 nM; for `Fc1cccc(Cl)c1-c1nc(NCCC(c2ccccc2)c2ccccc2)no1`, 550 nM. The molecule `O=C(c1cccc(-c2noc(C(F)(F)F)n2)c1)N1CCN(c2ccncc2)CC1` gave an IC50 of 230 nM. With `CC(C)(C)OC(=O)NCc1ccc(Nc2nnc(-c3ccc(OCC(=O)NC[C@@H]4CC[C@H]5C[C@@H]4C5(C)C)c([N+](=O)[O-])c3)o2)cc1` the figure was 910 nM; with `COc1ccc2nccc([C@@H](O)CN3CCC(NCc4cc5oc(=O)[nH]c5cc4F)CC3)c2c1`, 770 nM; with `CCOc1cccc(C(=O)Nc2cccc(CN3CCCN(Cc4ccc(O)cc4)CC3)c2)c1`, 820 nM.

As to `CCNc1cc(C(=O)N[C@@H](Cc2ccoc2)[C@H](O)CNC(C)CCCC(C)C)cc(N2CCCCS2(=O)=O)c1` (stereo partly specified), the IC50 was found to be 620 nM.

For the molecule `CC(C)(C)c1nn(-c2ccc(Cl)cc2)c2[nH]c(=O)c(CNCc3cccs3)cc12`, the IC50 is 760 nM. With `CC(C)(C)c1ccc(Cn2nc(C(=O)N3CCN(C(=O)C4CCCO4)CC3)c3ccccc32)cc1` (stereo unspecified) the figure was 1320 nM; with `Cc1cccc(-c2ccc(NC(=O)C3CCN(Cc4cccc(O)c4)CC3)cc2)c1`, 980 nM. Regarding `O=C(Nc1ccc(C(F)(F)F)cc1)c1cccc(S(=O)(=O)NC2CCN(CC3CCCCC3)C2)c1` (stereo unspecified), the IC50 amounted to 690 nM.

Turning to `C=C1N(C)c2cc([N+](=O)[O-])c(N)cc2C1(C)C`, the IC50 came to 490 nM.

In turn, `Cc1cccc2[nH]c(-c3ccc(-c4cccc(CNCC5CCCO5)c4)s3)nc12` (stereo unspecified) had an IC50 of 970 nM. `CN(C)CCCOc1ccc(CN2CC[C@H](NC(=O)c3ccc(Cl)c(Cl)c3)C2)cc1Br` gave an IC50 of 760 nM.

`O=C(Nc1ccc(-c2oc(C(=O)NCCc3cccc(Cl)c3)cc2-c2ccncc2)cc1)Nc1cccc(Cl)c1` displayed an IC50 of 720 nM. For `O=C(NC1CCCCC1)C(c1cccs1)N(CCc1ccccc1)C(=O)c1ccco1` (stereo unspecified) the value was 1040 nM; for `COc1ccc(C2CCN(CCCCNC(=O)c3ccc(NC(=O)c4ccc(Cl)cc4)cc3)CC2)c(C)c1`, 750 nM. The molecule `Cc1cc(-c2cc3nc4c(c(=O)n3[nH]2)CCCC4)c(C)o1` had an IC50 of 820 nM.

In turn, `CCn1c(-c2nonc2N)nc2c(Cl)ncc(O[C@H](CCN)c3ccccc3F)c21` had an IC50 of 1460 nM.

`CCOC(=O)C(NC(=O)c1ccc([N+](=O)[O-])o1)C(C)C` (stereo unspecified) had an IC50 of 1060 nM. With `CCNc1cc(C(=O)N[C@@H](Cc2ccccc2)[C@H](O)CNCCc2ccccc2)cc(N2CCCCS2(=O)=O)c1` the figure was 940 nM; with `Cc1cccc(Nc2nc(N[C@@H]3CCCNC3)nc3cc[nH]c(=O)c23)c1`, 680 nM; with `CC(C)CNCc1cccc(-c2cccc(CN(CCCN3CCN(C)CC3)C(=O)Nc3ccccc3)c2)c1`, 1150 nM. As to `Cc1nc(C)c(-c2ccc(Oc3ccc(OC(F)(F)F)cc3)cc2)c(OC(=O)N(CCNC(C)C)C(C)C)c1Br`, the IC50 stood at 170 nM.

For the molecule `C=CCn1c(Sc2ccc(C#N)c([N+](=O)[O-])c2)nnc1-c1cccc(Cl)c1`, the IC50 is 300 nM.

With `CC1(C)CCCN(Cc2c(O)ccc3c(=O)c(-c4nc5ccccc5s4)c(N)oc23)C1`, the IC50 came to 340 nM. For `CO/N=C(\C)c1ccc2c(c1)CCN(CCC1CCC(NC(=O)c3cccc(-c4noc(C)n4)c3)CC1)CC2` (stereo unspecified) the value was 240 nM; for `Clc1ccc(OCc2ccccc2)c(-c2nc(-c3nc4ccc(Cl)cc4[nH]3)cs2)c1`, 670 nM; for `C[C@H](Cc1ccc(Oc2ccc(C[C@@H](C)NC[C@H](O)c3cccc(Cl)c3)cc2)cc1)NC[C@H](O)c1cccc(Cl)c1`, 560 nM. With `Cc1cccc2[nH]c(-c3ccc(-c4cccc(CNCCCN5CCCC5=O)c4)cc3)nc12` the figure was 840 nM. The molecule `CCN1CCN(CCCCNc2c3ccccc3nc3ccccc23)CC1` showed an IC50 of 860 nM. For `O=c1[nH]c2ccc3[nH]cccc3c2c1C=Nc1ccc(N2CCN(CCO)CC2)cc1` the value was 1270 nM. As for `COC(=O)CCCCCOc1cc(Cc2cnc(N)nc2N)cc(OC)c1OC`, the IC50 is 180 nM. For the molecule `CN(C)CC1CCCN1Cc1ccccc1-c1cnn(C)c(=O)c1Oc1ccccc1F` (stereo unspecified), the IC50 was 1310 nM.

As to `CCC(C)CN1CCCN(c2ccc(NC(=O)c3cccs3)cc2)CC1` (stereo unspecified), the IC50 was determined as 800 nM.

Molecule `COc1ccc(Cl)cc1N1CCN(CCCNC(=O)c2ccc(-c3nc4cc(Cl)c(C)cc4[nH]3)c(F)c2)CC1` registered an IC50 of 180 nM. For `Cc1sc(N2CCCCC2)nc1C(=O)Nc1ccc(F)cc1C(F)(F)F` the value was 1150 nM.

With `CCC1CN2CCc3c([nH]c4ccccc34)[C@@H]2C[C@@H]1CC1NCCc2cc(OC)c(OC)cc21` (stereo partly specified), the IC50 is 860 nM and 840 nM. With `CCOc1ccc(-c2nonc2NC(=O)c2ccccc2F)cc1OCC` the figure was 840 nM; with `COC(=O)CCCCOc1cc(Cc2cnc(N)nc2N)cc(OC)c1OC`, 170 nM; with `Cc1c(C(=O)[C@@H]2C[C@H]2CN2CCC(N3CCCC3)CC2)sc2ccccc12`, 1400 nM. For `COc1cc(Cc2cnc(N)nc2N)ccc1OCC(=O)Nc1ccc(C)cc1` the value was 480 nM; for `N#Cc1cccc(NC(=O)Nc2cccc(-c3cccc(-c4nc5ccc(C(F)(F)F)cc5[nH]4)c3)c2)c1`, 220 nM; for `O=C(NC1CC1)C1CCN(Cc2cc3ccccc3n2Cc2ccc(Cl)cc2)CC1`, 490 nM. For `CCOc1ccccc1C(=O)N1CCc2cc3nccc(N4CCN5CCC[C@H]5C4)c3cc21` the value was 750 nM; for `Fc1cccc(COc2ccc(-n3ccc4c(NCCCn5ccnc5)ncnc43)cc2Cl)n1`, 1030 nM; for `N#Cc1ccc(C(=O)Nc2cc(-c3cccc(O)c3)cc3[nH]ncc23)cc1`, 1370 nM. The molecule `Oc1cc2c(cc1CN1CCN(Cc3ccccc3)CC1)CCC2` showed an IC50 of 720 nM. With `CN1CCN(c2ccnc3ccc(NC(=O)Nc4cccc5ccccc45)cc23)CC1` the figure was 490 nM.

The molecule `CCCN1CCC(NCc2cn(C)nc2-c2ccc(Oc3ccccc3)cc2)CC1` had an IC50 of 1440 nM.

`CN(C)S(=O)(=O)n1ncc2c3c(N)nc(N)nc3ccc21` gave an IC50 of 180 nM. With `CN(CCC(CCN1CCC(c2c[nH]c3ccccc23)CC1)c1ccccc1)C(=O)Nc1ccc(Cl)c(Cl)c1` (stereo unspecified) the figure was 1190 nM. With `O=C(/C=C/c1ccc(Cl)c(Cl)c1)N1CCC(CN2CCC(c3nc4ccccc4n3CCCO)CC2)CC1` the figure was 840 nM; with `Cc1cc(C2CCCCN2C)ccc1-c1ccc(C(=O)N2CCc3cc4c(cc32)C2(CCN(C)CC2)CO4)cc1` (stereo unspecified), 790 nM; with `O=C(Nc1cccc(CN2CCCN(Cc3ccccc3)CC2)c1)c1cc2ccccc2s1`, 1200 nM.

In turn, `COc1ccc2nc3cc(Cl)ccc3c(NCCN(C)C)c2c1` had an IC50 of 190 nM.

`CCCc1ccccc1OCC(O)CN(C1CCCC1)C1CCCC1` (stereo unspecified) registered an IC50 of 470 nM. Molecule `N#Cc1ccc(-c2nc3c(N4CCCC4)cccc3n2CCNCc2ccccc2)cc1` displayed an IC50 of 590 nM. For `N#Cc1cc(C(=O)c2cc(Cl)ccc2O)cn(-c2cccc(C(F)(F)F)c2)c1=O` the value was 1130 nM. With `OC1CCCN(Cc2ccc(-c3cccc(-c4nc5ccccc5[nH]4)c3)cc2)C1` (stereo unspecified) the figure was 1340 nM. For `COc1ccc(NC(=O)Nc2cccc(-c3ccncc3)c2)cc1N1CCN(C)CC1` the value was 550 nM; for `Cn1cncc1-c1cc2c(Nc3ccc(OCc4ccccc4)cc3)ncnc2cn1`, 270 nM; for `O=C(/C=C/c1ccc(Cl)cc1)NCCCCCN1CCC(C(=O)Nc2ccc(Cl)cc2)CC1`, 830 nM. Turning to `CC[C@H](C)CNC(=O)c1cncc(-c2ccc(CNCCOc3ccccc3)cc2)c1`, the IC50 worked out at 1110 nM.

The molecule `Cc1ccc(NC(=O)c2cc(Br)cc(N3CCCN(C)CC3)c2)cc1F` registered an IC50 of 1340 nM. With `COc1ccc(OCCn2cc(C(=O)c3ccco3)c3ccccc32)cc1` the figure was 770 nM; with `CCCCCCN1CCC(NCc2cccc([N+](=O)[O-])c2)CC1`, 670 nM; with `COc1ccc(-c2nc(NC(=O)COc3ccc(C(C)=O)cc3)sc2C)cc1`, 710 nM. In turn, `Cc1cc(N)nc2ccc(-c3ccc(CCN)cc3)cc12` had an IC50 of 620 nM. With `Oc1ccc(CCNc2nc(NCCCOc3ccccc3-c3cccnc3)nc(N3CCNCC3)n2)cc1` the figure was 1040 nM. In the case of `CC(C)Cc1cnc2nc(N)nc(N)c2c1`, the IC50 came out at 490 nM. For `Fc1ccc(Nc2ccnc3cc(-c4cccc(CNCCN5CCOCC5)c4)ccc23)c(Cl)c1` the value was 140 nM. The molecule `Fc1cccc(COc2ccc(Nc3ncnc4sc(C#C[C@H]5CC[C@H](CNCC(F)(F)F)N5)cc34)cc2Cl)c1` showed an IC50 of 1420 nM.

Regarding `Oc1ccc(CCNc2nc(N/N=C/C=C/c3ccc(Cl)cc3)nc(N3CCNCC3)n2)cc1`, the IC50 is 780 nM.
